Experimental data from PubChem BioAssay (NCI).
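Where inhibition never reached the appropriate level, the endpoint shown equals the highest concentration tested. Otherwise, values were interpolated linearly from a five-concentration, 48-hour dose response in 96-well plates. Definition used: TGI = concentration required for complete inhibition of growth.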

How the values were obtained:
Assay in all cases: NCI tumour cell line growth inhibition, 48 h
DLD-1 colon = test system: DLD-1 colon
P388 leukemia = test system: P388 leukemia
P388/ADR leukemia = test system: P388/ADR leukemia
SN12K1 renal = test system: SN12K1 renal
SNB-78 CNS = test system: SNB-78 CNS
LXFL 529 NSCLC = test system: LXFL 529 NSCLC
RXF-631 renal = test system: RXF-631 renal

Row | Structure (SMILES) | TGI (DLD-1 colon) [µM] | TGI (P388 leukemia) [µM] | TGI (P388/ADR leukemia) [µM] | TGI (SN12K1 renal) [µM] | TGI (SNB-78 CNS) [µM] | TGI (LXFL 529 NSCLC) [µM] | TGI (RXF-631 renal) [µM]
1 | O=C(NC(Cc1ccc(I)cc1)C(=O)O)c1ccc(Cl)cc1 (stereo not drawn) | > 100 | > 100 | > 100 | > 100 | > 100 | – | –
2 | O=C1OC2(OC2c2ccc(Cl)cc2)c2ccccc21 (stereo not drawn) | > 100 | – | – | – | – | 78.2 | –
3 | CNC(C)Cc1ccccc1OC (stereo not drawn) | > 100 | – | – | – | > 100 | > 100 | > 100
4 | CC1C(=O)C(C)C(c2ccco2)N(N=O)C1c1ccco1 (stereo not drawn) | > 100 | > 100 | > 100 | > 100 | > 100 | – | –
5 | Cc1ccc(N=NC(C2=NC(=O)CS2)c2nc3ccccc3[nH]2)cc1 (stereo not drawn) | > 100 | – | – | – | – | > 100 | –
6 | C[n+]1c2ccccc2c(CNC(CS)C(=O)O)c2ccccc21 (stereo not drawn) | > 100 | – | – | – | > 100 | > 100 | 70.4
7 | CS(=O)(=O)OCCN(CCOS(C)(=O)=O)c1ccc(/C=N/Nc2ncnc3nc[nH]c23)cc1 | 74.9 | – | – | – | 75.5 | – | –
8 | COc1cc([N+](=O)[O-])ccc1NC(=O)c1cccc([N+](=O)[O-])c1O | > 100 | – | – | – | > 100 | > 100 | > 100
9 | N=C(N)SCc1cccc([N+](=O)[O-])c1 | 97.6 | 33.6 | 41.2 | 98.6 | > 100 | – | –
